Source: ChEMBL document CHEMBL2034973, “Exploring activity cliffs in medicinal chemistry” (J Med Chem, 2012)

Legend:
[1] = biological target: Prostaglandin G/H synthase 1 (Homo sapiens, UniProt P23219); assay: Inhibition of COX1
[2] = biological target: T1, Prostaglandin G/H synthase 2 (Homo sapiens, UniProt P35354); assay: Inhibition of COX2
T1 sequence (P35354 whole entry): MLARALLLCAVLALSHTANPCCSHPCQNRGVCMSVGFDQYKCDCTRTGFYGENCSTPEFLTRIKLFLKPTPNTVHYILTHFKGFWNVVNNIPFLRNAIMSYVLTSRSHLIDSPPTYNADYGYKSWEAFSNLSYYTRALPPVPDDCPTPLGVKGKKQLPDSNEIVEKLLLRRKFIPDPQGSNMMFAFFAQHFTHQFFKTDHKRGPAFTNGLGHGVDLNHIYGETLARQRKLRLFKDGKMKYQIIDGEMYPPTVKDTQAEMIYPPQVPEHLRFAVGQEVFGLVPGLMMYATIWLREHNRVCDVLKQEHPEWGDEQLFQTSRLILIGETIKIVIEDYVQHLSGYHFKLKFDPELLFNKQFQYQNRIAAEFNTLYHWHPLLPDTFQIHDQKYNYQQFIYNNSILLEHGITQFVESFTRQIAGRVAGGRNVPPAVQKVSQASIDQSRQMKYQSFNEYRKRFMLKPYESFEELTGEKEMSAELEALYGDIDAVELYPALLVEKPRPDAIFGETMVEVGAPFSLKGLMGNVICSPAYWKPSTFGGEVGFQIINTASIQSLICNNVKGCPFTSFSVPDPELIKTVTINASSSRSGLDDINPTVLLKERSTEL

Procathepsin L = Procathepsin L (Homo sapiens, UniProt P07711); assay: Inhibition of cathepsin L
Sequence of Procathepsin L (P07711 whole entry): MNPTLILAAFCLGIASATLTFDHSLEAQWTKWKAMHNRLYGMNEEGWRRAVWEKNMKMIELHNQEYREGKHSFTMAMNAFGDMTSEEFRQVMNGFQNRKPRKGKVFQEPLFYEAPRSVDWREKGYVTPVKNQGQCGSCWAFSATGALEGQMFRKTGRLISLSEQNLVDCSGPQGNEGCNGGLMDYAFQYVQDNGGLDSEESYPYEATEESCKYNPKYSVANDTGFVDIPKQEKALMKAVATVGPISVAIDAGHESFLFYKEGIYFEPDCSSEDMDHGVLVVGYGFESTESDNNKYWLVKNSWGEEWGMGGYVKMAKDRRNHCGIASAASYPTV

Cathepsin B = Cathepsin B (Homo sapiens, UniProt P07858); assay: Inhibition of cathepsin B

Sequence of Prostaglandin G/H synthase 1 (P23219 whole entry): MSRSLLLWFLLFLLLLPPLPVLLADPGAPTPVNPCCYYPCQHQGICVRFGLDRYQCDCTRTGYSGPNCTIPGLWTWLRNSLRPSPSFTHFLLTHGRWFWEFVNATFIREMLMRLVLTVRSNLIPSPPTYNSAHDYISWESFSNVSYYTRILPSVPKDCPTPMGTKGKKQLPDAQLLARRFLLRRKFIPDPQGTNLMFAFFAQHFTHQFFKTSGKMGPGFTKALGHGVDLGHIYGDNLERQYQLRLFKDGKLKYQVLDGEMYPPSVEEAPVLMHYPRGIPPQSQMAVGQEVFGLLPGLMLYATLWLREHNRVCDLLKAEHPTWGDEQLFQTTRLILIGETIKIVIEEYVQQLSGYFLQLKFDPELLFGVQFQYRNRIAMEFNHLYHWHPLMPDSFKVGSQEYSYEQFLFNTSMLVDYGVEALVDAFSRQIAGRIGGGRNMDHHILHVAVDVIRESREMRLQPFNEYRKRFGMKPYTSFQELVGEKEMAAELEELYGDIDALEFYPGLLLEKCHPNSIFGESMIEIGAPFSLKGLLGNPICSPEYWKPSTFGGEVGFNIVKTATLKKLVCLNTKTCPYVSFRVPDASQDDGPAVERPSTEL

| SMILES | IC50 [1] [µM] | IC50 [2] [µM] | IC50 (Procathepsin L) [µM] | IC50 (Cathepsin B) [µM] |
| --- | --- | --- | --- | --- |
| Cc1ccc(Nc2c(F)cccc2Cl)c(CC(=O)O)c1 [LUMIRACOXIB] | 0.007 | > 10 |  |  |
| N#CCNC(=O)C1CCCCC1CSc1cccc(Cl)c1 (stereo unspecified) |  |  | 3.6 | 102 |
| N#CCNC(=O)C1CCCCC1CSc1ccccc1 (stereo unspecified) |  |  | 26 | 5.3 |
